According to the supplement of paper PMC9512659:

What was measured:
[1] = test system: Mycobacterium tuberculosis Erdman (pMV306hsp+LuxG13); experiment: log2 fractional inhibitory concentration at 90% inhibition (log2 FIC); higher = more antagonistic
Protocol: (§1)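 DiaMOND pairwise dose responses of an equipotent two-drug mixture (1.5-fold, 10-dose series) against autoluminescent M. tuberculosis Erdman in 384-well plates. Growth inhibition was read by OD600 (luminescence for dormancy) in seven media at a constant and a terminal time point; metrics are means of at least biological duplicates. Einf and AUC25 higher = more potent; GRinf lower = more potent; log2FIC negative = synergy.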

[2] = test system: Mycobacterium tuberculosis Erdman (pMV306hsp+LuxG13); experiment: log2 fractional inhibitory concentration at 50% inhibition (log2 FIC); higher = more antagonistic
Protocol: as §1

[3] = test system: Mycobacterium tuberculosis Erdman (pMV306hsp+LuxG13); experiment: AUC25, normalised area under the dose-response curve up to IC25 (normalised AUC (unitless)); higher = more potent
Protocol: as §1

[4] = test system: Mycobacterium tuberculosis Erdman (pMV306hsp+LuxG13); experiment: GRinf, normalised growth-rate inhibition at infinite dose (GR value (unitless, negative = killing)); higher = less potent
Protocol: as §1

[5] = test system: Mycobacterium tuberculosis Erdman (pMV306hsp+LuxG13); experiment: Einf, effect of the drug pair at infinite dose (maximum growth inhibition) (fraction inhibition (0-1)); higher = more potent; extreme values may be limits of the assay
Protocol: as §1

CC[C@@H](CO)NCCN[C@@H](CC)CO [ethambutol] + CC(C)=CCC/C(C)=C/CNCCNC1C2CC3CC(C2)CC1C3 [SQ109]
Conditions	AUC25, [3]	Einf, [5]	GRinf, [4]	log2 fractional inhibitory concentration, [1]	log2 fractional inhibitory concentration, [2]
growth medium: butyrate 5 mM, time point: constant time point	0.0766	0.886	0.0457	–	0.614
growth medium: butyrate 5 mM, time point: terminal time point	0.0668	0.937	0.0593	0.586	0.497
growth medium: cholesterol 0.05 mM, time point: constant time point	0.0769	0.732	-0.435	–	0.488
growth medium: cholesterol 0.2 mM (cholesterol-high), time point: constant time point	0.0635	1	-0.949	0.489	0.679
growth medium: cholesterol 0.2 mM (cholesterol-high), time point: terminal time point	0.0641	1	-0.86	0.354	0.546
growth medium: standard 7H9 OADC glycerol, time point: constant = terminal time point (4.2 d)	0.0512	0.843	0.238	–	0.0946
growth medium: valerate 0.1%, time point: constant time point	0.0745	0.902	0.155	0.158	0.751
growth medium: valerate 0.1%, time point: terminal time point	0.0778	0.9	0.175	0.34	0.656

growth medium: hypoxic dormancy (butyrate + nitrate), then recovery
Conditions	AUC25, [3]	Einf, [5]	GRinf, [4]	log2 fractional inhibitory concentration, [1]	log2 fractional inhibitory concentration, [2]
time point: constant time point	0.0928	0.988	-0.333	-0.745	-0.601
time point: terminal time point	0.0578	0.96	0.144	–	0.71

NNC(=O)c1ccncc1 [isoniazid] + CC(=O)NC[C@H]1CN(c2ccc(N3CCSCC3)c(F)c2)C(=O)O1 [sutezolid]
Conditions	AUC25, [3]	Einf, [5]	GRinf, [4]	log2 fractional inhibitory concentration, [1]	log2 fractional inhibitory concentration, [2]
growth medium: acidic pH 5.7, glycerol, time point: constant time point	0.0914	0.846	-0.123	–	0.123
growth medium: acidic pH 5.7, glycerol, time point: terminal time point	0.0816	0.972	-0.174	-0.00954	0.103
growth medium: butyrate 5 mM, time point: constant time point	0.0778	0.901	0.0944	–	0.357
growth medium: butyrate 5 mM, time point: terminal time point	0.0468	0.944	0.104	0.0935	0.264
growth medium: cholesterol 0.05 mM, time point: constant time point	0.026	0.988	-0.536	-0.209	0.559
growth medium: cholesterol 0.05 mM, time point: terminal time point	0.113	1	-1	0.0381	0.493
growth medium: cholesterol 0.2 mM (cholesterol-high), time point: constant time point	0.0844	0.994	-0.83	0.448	0.0991
growth medium: cholesterol 0.2 mM (cholesterol-high), time point: terminal time point	0.119	1	-0.942	0.592	-0.302
growth medium: standard 7H9 OADC glycerol, time point: constant = terminal time point (4.2 d)	0.0428	0.956	0.0933	-0.586	-0.00832
growth medium: valerate 0.1%, time point: constant time point	0.0744	0.872	-0.342	–	1.2
growth medium: valerate 0.1%, time point: terminal time point	0.0761	0.982	-0.0769	0.724	0.633

growth medium: hypoxic dormancy (butyrate + nitrate), then recovery
Conditions	AUC25, [3]	Einf, [5]	GRinf, [4]	log2 fractional inhibitory concentration, [1]	log2 fractional inhibitory concentration, [2]
time point: constant time point	0.0513	0.987	0.3	-0.281	0.243
time point: terminal time point	0.0273	0.958	0.448	-0.485	0.741

NNC(=O)c1ccncc1 [isoniazid] + CC(C)=CCC/C(C)=C/CNCCNC1C2CC3CC(C2)CC1C3 [SQ109]
Conditions	AUC25, [3]	Einf, [5]	GRinf, [4]	log2 fractional inhibitory concentration, [1]	log2 fractional inhibitory concentration, [2]
growth medium: butyrate 5 mM, time point: constant time point	0.0624	0.897	0.0429	–	0.35
growth medium: butyrate 5 mM, time point: terminal time point	0.0434	0.944	0.0572	0.00828	0.29
growth medium: cholesterol 0.05 mM, time point: constant time point	0.1	0.84	-0.682	–	1.02
growth medium: cholesterol 0.2 mM (cholesterol-high), time point: constant time point	0.0635	0.999	-0.997	0.434	0.5
growth medium: cholesterol 0.2 mM (cholesterol-high), time point: terminal time point	0.0743	1	-0.87	0.311	0.189
growth medium: standard 7H9 OADC glycerol, time point: constant = terminal time point (4.2 d)	0.0551	0.858	0.218	–	0.45
growth medium: valerate 0.1%, time point: constant time point	0.0611	0.964	-0.00837	0.14	0.052
growth medium: valerate 0.1%, time point: terminal time point	0.0646	0.968	-0.0113	0.00427	0.109

growth medium: hypoxic dormancy (butyrate + nitrate), then recovery
Conditions	AUC25, [3]	Einf, [5]	GRinf, [4]	log2 fractional inhibitory concentration, [1]	log2 fractional inhibitory concentration, [2]
time point: constant time point	0.0841	0.994	-0.408	0.0195	-0.42
time point: terminal time point	0.0403	0.96	0.13	-0.76	-0.641

COc1c(N2C[C@@H]3CCCN[C@@H]3C2)c(F)cc2c(=O)c(C(=O)O)cn(C3CC3)c12 [moxifloxacin] + CC(=O)NC[C@H]1CN(c2ccc(N3CCSCC3)c(F)c2)C(=O)O1 [sutezolid]
Conditions	AUC25, [3]	Einf, [5]	GRinf, [4]	log2 fractional inhibitory concentration, [1]	log2 fractional inhibitory concentration, [2]
growth medium: acidic pH 5.7, glycerol, time point: constant time point	0.153	0.884	-0.618	–	-0.766
growth medium: acidic pH 5.7, glycerol, time point: terminal time point	0.126	0.994	-0.27	0.0336	-0.628
growth medium: butyrate 5 mM, time point: constant time point	0.0856	0.921	0.0433	–	2.18
growth medium: butyrate 5 mM, time point: terminal time point	0.0636	0.96	0.0229	2.06	1.99
growth medium: cholesterol 0.05 mM, time point: constant time point	0.0609	0.744	-0.918	–	0.274
growth medium: cholesterol 0.2 mM (cholesterol-high), time point: constant time point	0.0941	1	-0.886	-0.0409	-0.358
growth medium: cholesterol 0.2 mM (cholesterol-high), time point: terminal time point	0.12	1	-0.872	0.362	-0.612
growth medium: standard 7H9 OADC glycerol, time point: constant = terminal time point (4.2 d)	0.0573	0.969	0.0204	-0.545	-0.0683
growth medium: valerate 0.1%, time point: constant time point	0.097	0.857	-0.0498	–	0.387
growth medium: valerate 0.1%, time point: terminal time point	0.0564	0.963	-0.0149	-0.156	0.257

growth medium: hypoxic dormancy (butyrate + nitrate), then recovery
Conditions	AUC25, [3]	Einf, [5]	GRinf, [4]	log2 fractional inhibitory concentration, [1]	log2 fractional inhibitory concentration, [2]
time point: constant time point	0.0806	0.95	0.218	-1.18	0.0759
time point: terminal time point	0.0478	0.902	0.508	0.502	0.726
